Laboratory results from US9949479B2 (priority 2015, dated 2018).
Several values for one entry are separate records, joined by “and”; a condition that tells them apart may be missing. Identical values can stand only once. Like-named read-outs stand apart in the source and are kept apart here.

What was measured:
Fusarium asiaticum = experiment: microbe, parasite or virus in culture; type: cell-based
[1] = test system: DON toxin biosynthesis of carbendazim-resistant fusarium asiaticum; experiment: microbe, parasite or virus in culture; type: cell-based; conditions: Fusarium asiaticum, read-out: DON Biosynthesis Inhibition Rate
leaf rust fungus = type: in vivo; conditions: seed treatment; dose as in E133
powdery mildew [2] = type: in vivo; conditions: dose as in E145
leaf blight [3] = type: in vivo; conditions: dose as in E154
powdery mildew [4] = type: in vivo; conditions: dose as in E154
rust [5] = type: in vivo; conditions: dose as in E154
[6] = type: in vivo, barley; conditions: dose as in E154
wheat scab [7] = type: in vivo, Fusarium spp.
leaf blight [8] = type: in vivo
rust [9] = type: in vivo
[10] = type: in vivo, wheat
wheat scab [11] = type: in vivo, Fusarium spp.; remark: listed apart in the source
leaf blight [12] = type: in vivo; remark: listed apart in the source
powdery mildew [13] = type: in vivo
rust [14] = type: in vivo; remark: listed apart in the source
[15] = set-up: species or system wheat; conditions: in vivo
leaf blight [16] = type: in vivo; remark: listed apart in the source
rust [17] = type: in vivo; remark: listed apart in the source
[18] = set-up: species or system wheat; conditions: in vivo; remark: listed apart in the source
wheat scab [19] = type: in vivo, Fusarium spp.; conditions: Serial 5: preparation 100 g/mu; jinggangmycin 20, metconazole 0 g ai./mu
leaf blight [20] = type: in vivo; conditions: Serial 5: preparation 100 g/mu; jinggangmycin 20, metconazole 0 g ai./mu
powdery mildew [21] = type: in vivo; conditions: Serial 5: preparation 100 g/mu; jinggangmycin 20, metconazole 0 g ai./mu
rust [22] = type: in vivo; conditions: Serial 5: preparation 100 g/mu; jinggangmycin 20, metconazole 0 g ai./mu
wheat scab [23] = type: in vivo, Fusarium spp.; conditions: Serial 5: preparation 100; jinggangmycin 20, metconazole 0 g ai./mu
powdery mildew [24] = type: in vivo; conditions: Serial 5: preparation 100; jinggangmycin 20, metconazole 0 g ai./mu
rust [25] = type: in vivo; conditions: Serial 5: preparation 100; jinggangmycin 20, metconazole 0 g ai./mu
wheat scab [26] = type: in vivo, Fusarium spp.; remark: listed apart in the source
powdery mildew [27] = type: in vivo; remark: listed apart in the source
[28] = type: in vivo, wheat; remark: listed apart in the source
[29] = Serial 11: jinggangmycin 36 g ai./mu alone
[30] = Serial 12: jinggangmycin 18 g ai./mu alone
[31] = Serial 13: jinggangmycin 15 g ai./mu alone
[32] = Serial 14: jinggangmycin 7.5 g ai./mu alone
[33] = Serial 15: jinggangmycin 5 g ai./mu alone
[34] = Serial 16: jinggangmycin 2.5 g ai./mu alone
[35] = Serial 17: jinggangmycin 3 g ai./mu alone
[36] = Serial 18: jinggangmycin 1.5 g ai./mu alone
[37] = Serial 19: jinggangmycin 1 g ai./mu alone
[38] = Serial 20: jinggangmycin 0.5 g ai./mu alone
[39] = Serial 5: preparation 100 g/mu, jinggangmycin 20 g ai./mu alone
[40] = Serial 6: preparation 80 g/mu, jinggangmycin 16 g ai./mu alone
[41] = Serial 7: preparation 40 g/mu, jinggangmycin 8 g ai./mu alone
[42] = Serial 8: preparation 20 g/mu, jinggangmycin 4 g ai./mu alone
[43] = Serial 5: preparation 50 g/mu, jinggangmycin 10 g ai./mu alone
[44] = Serial 6: preparation 37.5 g/mu, jinggangmycin 7.5 g ai./mu alone
[45] = Serial 7: preparation 15 g/mu, jinggangmycin 3 g ai./mu alone
[46] = Serial 5: preparation 75 g/mu, jinggangmycin 15 g ai./mu alone
[47] = Serial 6: preparation 60 g/mu, jinggangmycin 12 g ai./mu alone
[48] = Serial 7: preparation 45 g/mu, jinggangmycin 9 g ai./mu alone
[49] = Serial 8: preparation 30 g/mu, jinggangmycin 6 g ai./mu alone

OCC1=C[C@H](NC2C[C@H](CO)[C@@H](OC3O[C@H](CO)[C@@H](O)[C@H](O)[C@H]3O)[C@H](O)[C@H]2O)[C@H](O)[C@@H](O)[C@@H]1O (stereo partly shown) [Jinggangmycin A, jinggangmycin A]
Average Fungal Colony Diameter F.a (Fusarium asiaticum): 76.3 mm and 75.6 mm and 69.4 mm | inhibition at 50 µg/mL (Fusarium asiaticum; Fusarium asiaticum, read-out: Growth Inhibition Rate F.a): 7.8% | inhibition at 1 µg/mL ([1]; 168 h): 28.6% | inhibition at 10 µg/mL ([1]; 168 h): 35.5% | inhibition at 100 µg/mL ([1]; 168 h): 45.2% | inhibition at 1000 µg/mL ([1]; 168 h): 65.5% | inhibition at 10000 µg/mL ([1]; 168 h): 75.9% | inhibition at 1 µg/mL ([1]; 336 h): 1.7% | inhibition at 10 µg/mL ([1]; 336 h): 7.87% | inhibition at 100 µg/mL ([1]; 336 h): 29.9% | inhibition at 1000 µg/mL ([1]; 336 h): 57% | inhibition at 10000 µg/mL ([1]; 336 h): 75.4% | Incidence Prevention Effect % Rust (leaf rust fungus): 0% and 4.5% | Disease Index Prevention Effect % Powdery Mildew (powdery mildew [2]): 7.5% and 4.5% and 0% | Disease Index Prevention Effect % Leaf Blight (leaf blight [3]): 0% and 6.9% | Disease Index Prevention Effect % Powdery Mildew (powdery mildew [4]): 0% and 3.4% | Disease Index Prevention Effect % Rust (rust [5]): 0% | Grain Toxin Content [6]: 6.67 mg of DON/Kg of grain and 5.28 mg of DON/Kg of grain and 4.62 mg of DON/Kg of grain and 3.86 mg of DON/Kg of grain and 3.49 mg of DON/Kg of grain | Disease Index Prevention Effect % Head Blight (wheat scab [7]; [29]): 31.6% | Disease Index Prevention Effect % Head Blight (wheat scab [7]; [30]): 28.9% | Disease Index Prevention Effect % Head Blight (wheat scab [7]; [31]): 24.3% | Disease Index Prevention Effect % Head Blight (wheat scab [7]; [32]): 16.9% | Disease Index Prevention Effect % Head Blight (wheat scab [7]; [33]): 5.2% | Disease Index Prevention Effect % Head Blight (wheat scab [7]; [34]): 0% | Disease Index Prevention Effect % Head Blight (wheat scab [7]; [35]): 0% | Disease Index Prevention Effect % Head Blight (wheat scab [7]; [36]): 0% | Disease Index Prevention Effect % Head Blight (wheat scab [7]; [37]): 0% | Disease Index Prevention Effect % Head Blight (wheat scab [7]; [38]): 0% | Disease Index Prevention Effect % Leaf Blight (leaf blight [8]; [29]): 5.8% | Disease Index Prevention Effect % Leaf Blight (leaf blight [8]; [30]): 5.0% | Disease Index Prevention Effect % Leaf Blight (leaf blight [8]; [31]): 4.6% | Disease Index Prevention Effect % Leaf Blight (leaf blight [8]; [32]): 0% | Disease Index Prevention Effect % Leaf Blight (leaf blight [8]; [33]): 0% | Disease Index Prevention Effect % Leaf Blight (leaf blight [8]; [34]): 0% | Disease Index Prevention Effect % Leaf Blight (leaf blight [8]; [35]): 0% | Disease Index Prevention Effect % Leaf Blight (leaf blight [8]; [36]): 0% | Disease Index Prevention Effect % Leaf Blight (leaf blight [8]; [37]): 0% | Disease Index Prevention Effect % Leaf Blight (leaf blight [8]; [38]): 0% | Disease Index Prevention Effect % Rust (rust [9]; [29]): 7.6% | Disease Index Prevention Effect % Rust (rust [9]; [30]): 7.2% | Disease Index Prevention Effect % Rust (rust [9]; [31]): 7.2% | Disease Index Prevention Effect % Rust (rust [9]; [32]): 0% | Disease Index Prevention Effect % Rust (rust [9]; [33]): 0% | Disease Index Prevention Effect % Rust (rust [9]; [34]): 0% | Disease Index Prevention Effect % Rust (rust [9]; [35]): 0% | Disease Index Prevention Effect % Rust (rust [9]; [36]): 0% | Disease Index Prevention Effect % Rust (rust [9]; [37]): 0% | Disease Index Prevention Effect % Rust (rust [9]; [38]): 0% | Grain Toxin Content (mg of DON/Kg of grain) [10, 29]: 2.61 mg of DON/Kg of grain | Rate of Decrease in Toxin Content in Grains (%) [10, 29]: 59.6% | Grain Toxin Content (mg of DON/Kg of grain) [10, 30]: 2.86 mg of DON/Kg of grain | Rate of Decrease in Toxin Content in Grains (%) [10, 30]: 55.7% | Grain Toxin Content (mg of DON/Kg of grain) [10, 31]: 2.94 mg of DON/Kg of grain | Rate of Decrease in Toxin Content in Grains (%) [10, 31]: 54.5% | Grain Toxin Content (mg of DON/Kg of grain) [10, 32]: 3.42 mg of DON/Kg of grain | Rate of Decrease in Toxin Content in Grains (%) [10, 32]: 47.1% | Grain Toxin Content (mg of DON/Kg of grain) [10, 33]: 3.86 mg of DON/Kg of grain | Rate of Decrease in Toxin Content in Grains (%) [10, 33]: 40.2% | Grain Toxin Content (mg of DON/Kg of grain) [10, 34]: 3.92 mg of DON/Kg of grain | Rate of Decrease in Toxin Content in Grains (%) [10, 34]: 39.3% | Grain Toxin Content (mg of DON/Kg of grain) [10, 35]: 3.96 mg of DON/Kg of grain | Rate of Decrease in Toxin Content in Grains (%) [10, 35]: 38.7% | Grain Toxin Content (mg of DON/Kg of grain) [10, 36]: 4.82 mg of DON/Kg of grain | Rate of Decrease in Toxin Content in Grains (%) [10, 36]: 25.4% | Grain Toxin Content (mg of DON/Kg of grain) [10, 37]: 5.80 mg of DON/Kg of grain | Rate of Decrease in Toxin Content in Grains (%) [10, 37]: 10.2% | Grain Toxin Content (mg of DON/Kg of grain) [10, 38]: 5.86 mg of DON/Kg of grain | Rate of Decrease in Toxin Content in Grains (%) [10, 38]: 9.3% | Disease Index Prevention Effect % Head Blight (wheat scab [11]; [39]): 32.0% | Disease Index Prevention Effect % Head Blight (wheat scab [11]; [40]): 25.4% | Disease Index Prevention Effect % Head Blight (wheat scab [11]; [41]): 14.7% | Disease Index Prevention Effect % Head Blight (wheat scab [11]; [42]): 0% | Disease Index Prevention Effect % Leaf Blight (leaf blight [12]; [39]): 8.6% | Disease Index Prevention Effect % Leaf Blight (leaf blight [12]; [40]): 8.8% | Disease Index Prevention Effect % Leaf Blight (leaf blight [12]; [41]): 5.8% | Disease Index Prevention Effect % Leaf Blight (leaf blight [12]; [42]): 0% | Disease Index Prevention Effect % Powdery Mildew (powdery mildew [13]; [39]): 12.6% | Disease Index Prevention Effect % Powdery Mildew (powdery mildew [13]; [40]): 11.9% | Disease Index Prevention Effect % Powdery Mildew (powdery mildew [13]; [41]): 0% | Disease Index Prevention Effect % Powdery Mildew (powdery mildew [13]; [42]): 0% | Disease Index Prevention Effect % Rust (rust [14]; [39]): 6.8% | Disease Index Prevention Effect % Rust (rust [14]; [40]): 6.5% | Disease Index Prevention Effect % Rust (rust [14]; [41]): 0% | Disease Index Prevention Effect % Rust (rust [14]; [42]): 0% | Thousand Kernel Weight [15]: 39.2 g and 41.1 g and 39.8 g and 39.5 g | Disease Index Prevention Effect % Leaf Blight (leaf blight [16]; [43]): 8.6% | Disease Index Prevention Effect % Leaf Blight (leaf blight [16]; [44]): 8.8% | Disease Index Prevention Effect % Leaf Blight (leaf blight [16]; [45]): 5.8% | Disease Index Prevention Effect % Rust (rust [17]; [43]): 6.8% | Disease Index Prevention Effect % Rust (rust [17]; [44]): 6.5% | Disease Index Prevention Effect % Rust (rust [17]; [45]): 0% | Thousand Kernel Weight [18]: 39.6 g and 39.0 g and 37.9 g | Disease Index Prevention Effect % Head Blight (wheat scab [19]): 40.2% | Disease Index Prevention Effect % Leaf Blight (leaf blight [20]): 7.8% | Disease Index Prevention Effect % Powdery Mildew (powdery mildew [21]): 10.6% | Disease Index Prevention Effect % Rust (rust [22]): 6.5% | Disease Index Prevention Effect % Head Blight (wheat scab [23]): 34.2% | Disease Index Prevention Effect % Powdery Mildew (powdery mildew [24]): 10.6% | Disease Index Prevention Effect % Rust (rust [25]): 6.5% | Disease Index Prevention Effect % Head Blight (wheat scab [26]; [46]): 34.2% | Disease Index Prevention Effect % Head Blight (wheat scab [26]; [47]): 10.2% | Disease Index Prevention Effect % Head Blight (wheat scab [26]; [48]): 9.4% | Disease Index Prevention Effect % Head Blight (wheat scab [26]; [49]): 7.4% | Disease Index Prevention Effect % Powdery Mildew (powdery mildew [27]; [46]): 8.6% | Disease Index Prevention Effect % Powdery Mildew (powdery mildew [27]; [47]): 6.6% | Disease Index Prevention Effect % Powdery Mildew (powdery mildew [27]; [48]): 3.0% | Disease Index Prevention Effect % Powdery Mildew (powdery mildew [27]; [49]): 1.8% | Grain Toxin Content mg of DON/kg of grain [28, 46]: 2.86 mg of DON/kg of grain | Toxin Reduction Percentage % [28, 46]: 36.7% | Grain Toxin Content mg of DON/kg of grain [28, 47]: 3.82 mg of DON/kg of grain | Toxin Reduction Percentage % [28, 47]: 15.5% | Grain Toxin Content mg of DON/kg of grain [28, 48]: 4.02 mg of DON/kg of grain | Toxin Reduction Percentage % [28, 48]: 11.1% | Grain Toxin Content mg of DON/kg of grain [28, 49]: 4.14 mg of DON/kg of grain | Toxin Reduction Percentage % [28, 49]: 8.4%
